Reference: publication PMC7290235, “Regulation of Exopolysaccharide Production by ProE, a Cyclic-Di-GMP Phosphodiesterase in Pseudomonas aeruginosa PAO1” (Frontiers in Microbiology, 2020)

Tests used:
WspR = molecular target: T1, WspR (Pseudomonas aeruginosa, UniProt Q9HXT9); assay: HPLC of c-di-GMP formation; assay type: biochemical; conditions: 500 uM GTP, 5 uM enzyme, Tris-HCl pH 7.8, 250 mM NaCl, 25 mM KCl, 10 mM MgCl2, 37 C, 120 min
T1 construct: wspR in pET28b(+) (BamHI/HindIII), His tag, Ni-NTA purified; tag removal not mentioned
T1 sequence (Q9HXT9 entry or part of it): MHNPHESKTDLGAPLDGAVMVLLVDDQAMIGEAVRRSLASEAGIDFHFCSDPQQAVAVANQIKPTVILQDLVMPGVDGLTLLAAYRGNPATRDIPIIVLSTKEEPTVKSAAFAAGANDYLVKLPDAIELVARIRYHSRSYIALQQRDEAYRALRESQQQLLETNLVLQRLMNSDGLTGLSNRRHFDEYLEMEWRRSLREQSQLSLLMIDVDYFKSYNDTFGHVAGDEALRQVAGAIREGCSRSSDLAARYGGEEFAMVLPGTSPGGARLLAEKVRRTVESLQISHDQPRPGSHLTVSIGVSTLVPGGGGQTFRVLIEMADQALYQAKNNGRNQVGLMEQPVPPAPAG

ProE = molecular target: T2, ProE (Pseudomonas aeruginosa, UniProt Q9HTQ9); assay: HPLC of pGpG formation, […] nm; assay type: biochemical; conditions: 50 uM c-di-GMP, 0.08 uM enzyme, Tris-HCl pH 8.0, 20 mM KCl, 5 mM MgCl2, 37 C, 20 min
T2 construct: gene PA5295; coding region in pET28b(+) (BamHI/HindIII), His tag, Ni-NTA purified; GGDEF 113-282, EAL 292-538; tag removal not mentioned
T2 sequence (Q9HTQ9 entry or part of it): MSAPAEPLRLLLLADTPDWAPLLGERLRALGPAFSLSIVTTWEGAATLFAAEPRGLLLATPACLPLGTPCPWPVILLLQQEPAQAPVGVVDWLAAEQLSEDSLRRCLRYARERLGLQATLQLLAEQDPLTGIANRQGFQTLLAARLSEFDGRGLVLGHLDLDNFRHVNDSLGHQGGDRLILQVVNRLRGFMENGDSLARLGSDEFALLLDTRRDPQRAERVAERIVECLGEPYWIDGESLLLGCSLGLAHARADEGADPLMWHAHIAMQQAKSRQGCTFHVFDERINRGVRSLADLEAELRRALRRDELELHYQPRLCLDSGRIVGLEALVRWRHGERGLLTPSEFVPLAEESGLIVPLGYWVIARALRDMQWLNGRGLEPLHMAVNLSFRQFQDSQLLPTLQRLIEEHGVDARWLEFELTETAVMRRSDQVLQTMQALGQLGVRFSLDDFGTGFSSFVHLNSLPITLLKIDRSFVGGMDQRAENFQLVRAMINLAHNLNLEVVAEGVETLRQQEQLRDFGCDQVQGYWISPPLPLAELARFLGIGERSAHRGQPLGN

Row | SMILES | HPLC of c-di-GMP formation (WspR) | HPLC of pGpG formation, 254 nm (ProE)
1 | Nc1nc2c(ncn2[C@@H]2O[C@H](COP(=O)(O)OP(=O)(O)OP(=O)(O)O)[C@@H](O)[C@H]2O)c(=O)[nH]1 [GTP] | the control protein WspR could convert most GTP into c-di-GMP | –
2 | Nc1nc2c(ncn2[C@@H]2O[C@@H]3COP(=O)(O)O[C@H]4[C@@H](O)[C@H](n5cnc6c(=O)[nH]c(N)nc65)O[C@@H]4COP(=O)(O)O[C@H]3[C@H]2O)c(=O)[nH]1 [c-di-GMP] | – | HPLC analysis showed that the degradation product pGpG was produced
